Paper PMC11062899, “De novo development of small cyclic peptides that are orally bioavailable” (Nature Chemical Biology, 2023)
Values joined by “and” are separate entries in the source; they are usually repeats but may differ in a detail not shown here. Identical values can stand only once. Like-named read-outs stand apart in the source and are kept apart here.

Key:
human α-thrombin = human α-thrombin (Homo sapiens, UniProt P00734); experiment: Protease inhibition, Ki for human α-thrombin (fluorogenic substrate Z-Gly-Gly-Arg-AMC); type: biochemical; details: for slope normalized to DMSO, human alpha thrombin inhibition / Human alpha thrombin inhibition, slope normalized to DMSO: replicates R1-R3
In short: (§1)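 Ki derived through Cheng–Prusoff from IC50s (four-parameter logistic fit) against activity of peptide-free controls. Product fluorescence was read every 3 min over 30 min at 25 °C, substrate Z-Gly-Gly-Arg-AMC at 50 μM. Enzyme was 2 nM human or 3 nM rat α-thrombin, pH 7.4 buffer.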

rat α-thrombin = target: T1, rat α-thrombin (Rattus norvegicus, UniProt P18292); experiment: Protease inhibition, Ki for rat α-thrombin (fluorogenic substrate Z-Gly-Gly-Arg-AMC); type: biochemical; details: replicates R1-R3
T1 construct: rat α-thrombin (Molecular Innovations) were used at final concentrations of 2 nM and 3 nM; purchased Molecular Innovations
In short: as §1

slope normalized to DMSO, human alpha thrombin inhibition (human α-thrombin; peptide 1.00E+02 uM): 10.6 and 8.4 (2×)
slope normalized to DMSO, human alpha thrombin inhibition (human α-thrombin; peptide 1.19E-05 uM): 106.5 and 81.0 and 107.9
slope normalized to DMSO, human alpha thrombin inhibition (human α-thrombin; peptide 1.22E-02 uM): 62.0 and 85.6 and 70.0
slope normalized to DMSO, human alpha thrombin inhibition (human α-thrombin; peptide 1.25E+01 uM): 12.3 and 9.9 and 11.8
slope normalized to DMSO, human alpha thrombin inhibition (human α-thrombin; peptide 1.53E-03 uM): 95.1 and 99.7 and 102.7
slope normalized to DMSO, human alpha thrombin inhibition (human α-thrombin; peptide 1.56E+00 uM): 18.3 and 16.9 and 22.5
slope normalized to DMSO, human alpha thrombin inhibition (human α-thrombin; peptide 1.91E-04 uM): 119.9 and 101.0 and 100.8
slope normalized to DMSO, human alpha thrombin inhibition (human α-thrombin; peptide 1.95E-01 uM): 42.7 and 40.6 and 41.3
slope normalized to DMSO, human alpha thrombin inhibition (human α-thrombin; peptide 2.38E-05 uM): 106.9 and 97.9 and 102.5
slope normalized to DMSO, human alpha thrombin inhibition (human α-thrombin; peptide 2.44E-02 uM): 46.0 and 65.3 and 70.3
slope normalized to DMSO, human alpha thrombin inhibition (human α-thrombin; peptide 2.50E+01 uM): 11.7 and 11.0 and 8.9
slope normalized to DMSO, human alpha thrombin inhibition (human α-thrombin; peptide 3.05E-03 uM): 106.1 and 101.5 and 67.8
slope normalized to DMSO, human alpha thrombin inhibition (human α-thrombin; peptide 3.12E+00 uM): 3.8 and 18.2 and 18.8
slope normalized to DMSO, human alpha thrombin inhibition (human α-thrombin; peptide 3.81E-04 uM): 102.1 and 100.1 and 93.5
slope normalized to DMSO, human alpha thrombin inhibition (human α-thrombin; peptide 3.91E-01 uM): 14.9 and 22.0 and 10.5
slope normalized to DMSO, human alpha thrombin inhibition (human α-thrombin; peptide 4.77E-05 uM): 101.9 and 97.6 and 92.9
slope normalized to DMSO, human alpha thrombin inhibition (human α-thrombin; peptide 4.88E-02 uM): 73.8 and 55.8 and 60.0
slope normalized to DMSO, human alpha thrombin inhibition (human α-thrombin; peptide 5.00E+01 uM): 9.3 and 5.3
slope normalized to DMSO, human alpha thrombin inhibition (human α-thrombin; peptide 6.10E-03 uM): 98.4 and 93.3 and 99.0
slope normalized to DMSO, human alpha thrombin inhibition (human α-thrombin; peptide 6.25E+00 uM): 13.3 and 15.1 and 10.3
slope normalized to DMSO, human alpha thrombin inhibition (human α-thrombin; peptide 7.63E-04 uM): 80.8 and 91.3 and 104.9
slope normalized to DMSO, human alpha thrombin inhibition (human α-thrombin; peptide 7.81E-01 uM): 21.2 and 22.0 (2×)
slope normalized to DMSO, human alpha thrombin inhibition (human α-thrombin; peptide 9.54E-05 uM): 101.3 and 101.9 and 107.5
slope normalized to DMSO, human alpha thrombin inhibition (human α-thrombin; peptide 9.77E-02 uM): 65.8 and 56.8 and 59.4
Human alpha thrombin inhibition, slope normalized to DMSO (human α-thrombin; peptide concentration 1.00E+02 uM): 10.6 and 8.4 (2×)
Human alpha thrombin inhibition, slope normalized to DMSO (human α-thrombin; peptide concentration 1.19E-05 uM): 106.5 and 81.0 and 107.9
Human alpha thrombin inhibition, slope normalized to DMSO (human α-thrombin; peptide concentration 1.22E-02 uM): 62.0 and 85.6 and 70.0
Human alpha thrombin inhibition, slope normalized to DMSO (human α-thrombin; peptide concentration 1.25E+01 uM): 12.3 and 9.9 and 11.8
Human alpha thrombin inhibition, slope normalized to DMSO (human α-thrombin; peptide concentration 1.53E-03 uM): 95.1 and 99.7 and 102.7
Human alpha thrombin inhibition, slope normalized to DMSO (human α-thrombin; peptide concentration 1.56E+00 uM): 18.3 and 16.9 and 22.5
Human alpha thrombin inhibition, slope normalized to DMSO (human α-thrombin; peptide concentration 1.91E-04 uM): 119.9 and 101.0 and 100.8
Human alpha thrombin inhibition, slope normalized to DMSO (human α-thrombin; peptide concentration 1.95E-01 uM): 42.7 and 40.6 and 41.3
Human alpha thrombin inhibition, slope normalized to DMSO (human α-thrombin; peptide concentration 2.38E-05 uM): 106.9 and 97.9 and 102.5
Human alpha thrombin inhibition, slope normalized to DMSO (human α-thrombin; peptide concentration 2.44E-02 uM): 46.0 and 65.3 and 70.3
Human alpha thrombin inhibition, slope normalized to DMSO (human α-thrombin; peptide concentration 2.50E+01 uM): 11.7 and 11.0 and 8.9
Human alpha thrombin inhibition, slope normalized to DMSO (human α-thrombin; peptide concentration 3.05E-03 uM): 106.1 and 101.5 and 67.8
Human alpha thrombin inhibition, slope normalized to DMSO (human α-thrombin; peptide concentration 3.12E+00 uM): 3.8 and 18.2 and 18.8
Human alpha thrombin inhibition, slope normalized to DMSO (human α-thrombin; peptide concentration 3.81E-04 uM): 102.1 and 100.1 and 93.5
Human alpha thrombin inhibition, slope normalized to DMSO (human α-thrombin; peptide concentration 3.91E-01 uM): 14.9 and 22.0 and 10.5
Human alpha thrombin inhibition, slope normalized to DMSO (human α-thrombin; peptide concentration 4.77E-05 uM): 101.9 and 97.6 and 92.9
Human alpha thrombin inhibition, slope normalized to DMSO (human α-thrombin; peptide concentration 4.88E-02 uM): 73.8 and 55.8 and 60.0
Human alpha thrombin inhibition, slope normalized to DMSO (human α-thrombin; peptide concentration 5.00E+01 uM): 9.3 and 5.3
Human alpha thrombin inhibition, slope normalized to DMSO (human α-thrombin; peptide concentration 6.10E-03 uM): 98.4 and 93.3 and 99.0
Human alpha thrombin inhibition, slope normalized to DMSO (human α-thrombin; peptide concentration 6.25E+00 uM): 13.3 and 15.1 and 10.3
Human alpha thrombin inhibition, slope normalized to DMSO (human α-thrombin; peptide concentration 7.63E-04 uM): 80.8 and 91.3 and 104.9
Human alpha thrombin inhibition, slope normalized to DMSO (human α-thrombin; peptide concentration 7.81E-01 uM): 21.2 and 22.0 (2×)
Human alpha thrombin inhibition, slope normalized to DMSO (human α-thrombin; peptide concentration 9.54E-05 uM): 101.3 and 101.9 and 107.5
Human alpha thrombin inhibition, slope normalized to DMSO (human α-thrombin; peptide concentration 9.77E-02 uM): 65.8 and 56.8 and 59.4
Ki (human α-thrombin; purified peptide, mean and s.d. of three measurements, read-out: Ki human α-thrombin): 0.05 ± 0.006 µM
IC50 (human α-thrombin; single replicates R1-R3, read-out: Human alpha thrombin inhibition, IC50): 0.0564 µM and 0.0747 µM and 0.0635 µM
Ki (human α-thrombin; single replicates R1-R3, read-out: Human alpha thrombin inhibition, Ki): 0.0435 µM and 0.0576 µM and 0.0489 µM
slope normalized to DMSO, rat alpha thrombin inhibition (rat α-thrombin; peptide 1.00E+02 uM): 5.4 and 5.2 and 4.3
slope normalized to DMSO, rat alpha thrombin inhibition (rat α-thrombin; peptide 1.19E-05 uM): 102.6 and 102.2 and 91.2
slope normalized to DMSO, rat alpha thrombin inhibition (rat α-thrombin; peptide 1.22E-02 uM): 54.9 and 61.5 and 61.2
slope normalized to DMSO, rat alpha thrombin inhibition (rat α-thrombin; peptide 1.25E+01 uM): 7.2 and 11.2 and 5.0
slope normalized to DMSO, rat alpha thrombin inhibition (rat α-thrombin; peptide 1.53E-03 uM): 90.8 and 92.4 and 84.4
slope normalized to DMSO, rat alpha thrombin inhibition (rat α-thrombin; peptide 1.56E+00 uM): 8.6 and 7.9 and 7.3
slope normalized to DMSO, rat alpha thrombin inhibition (rat α-thrombin; peptide 1.91E-04 uM): 101.3 and 100.0 and 99.0
slope normalized to DMSO, rat alpha thrombin inhibition (rat α-thrombin; peptide 1.95E-01 uM): 18.2 and 17.7 and 18.1
slope normalized to DMSO, rat alpha thrombin inhibition (rat α-thrombin; peptide 2.38E-05 uM): 104.9 and 102.6 and 101.9
slope normalized to DMSO, rat alpha thrombin inhibition (rat α-thrombin; peptide 2.44E-02 uM): 50.2 and 48.9 and 44.8
SMILES: O=C1C[C@H]2CCCN2C(=O)[C@H](Cc2ccccc2)NC(=O)[C@@H](NC(=O)c2ccc(Cl)s2)CCC=CCCCCN1 [peptide 43]
